Results reported in publication PMC6522941, “Design, synthesis, and anticancer evaluation of novel quinoline derivatives of ursolic acid with hydrazide, oxadiazole, and thiadiazole moieties as potent MEK inhibitors” (Journal of Enzyme Inhibition and Medicinal Chemistry, 2019).

What was measured:
MEK1 = target: T1, MEK1 (Homo sapiens, UniProt Q02750); experiment: In vitro MEK1 kinase assay (ADP-Glo); type: biochemical; details: recombinant GST-MEK1, GST-ERK2 (inactive) substrate, 10 μM ATP
T1 construct: purchased Carna Biosciences, Kobe, Japan
T1 sequence (Q02750 whole entry): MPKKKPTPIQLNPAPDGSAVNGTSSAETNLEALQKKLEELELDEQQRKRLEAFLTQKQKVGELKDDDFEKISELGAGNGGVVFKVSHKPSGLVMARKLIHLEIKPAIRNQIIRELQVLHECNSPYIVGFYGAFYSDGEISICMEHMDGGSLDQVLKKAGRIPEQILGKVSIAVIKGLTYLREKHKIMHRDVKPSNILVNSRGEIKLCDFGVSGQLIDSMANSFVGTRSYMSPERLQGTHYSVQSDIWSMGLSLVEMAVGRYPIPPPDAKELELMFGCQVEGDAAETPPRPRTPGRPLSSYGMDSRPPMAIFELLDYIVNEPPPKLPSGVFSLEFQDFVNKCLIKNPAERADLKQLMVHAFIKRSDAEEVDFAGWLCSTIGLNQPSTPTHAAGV
Method: An in vitro kinase assay of MEK1 was performed using ADP-Glo kinase assay (Promega, Madison, WI, USA) according to the manufacturer’s protocol. […] Reactions were stopped by adding 5 μL of ADP-Glo reagent to each well. After incubating at 22 °C for 40 min, 10 μL of the kinase detection reagent was added and the plates were incubated for another 30 min at 22 °C in the dark. The reaction mixture was analysed by EnSpire (PerkinElmer, Waltham, MA, USA).
The Raf/MEK/ERK pathway is the downstream of Ras activation, and the abnormal expression or phosphorylation of the associated proteins is essential for cancer cell proliferation. In this pathway, MEK kinase is an important anticancer target because of its key roles in regulating the cancer cell apoptosis and oncogenic transformation[51]^,[52]. Among MEK proteins, MEK1 and MEK2 are known as substrate-specific kinases which phosphorylate their downstream kinase ERK1/2.

QSG-7701 cells = experiment: MTT cytotoxic assay, normal hepatocyte QSG-7701; type: cell-based, human; details: for IC50: Homo sapiens, QSG7701, MTT, normal hepatocyte cell line; for Selectivity: IC50 (QSG-7701)/IC50 (HeLa)
Method: (§1) Human breast cancer cell line (MDA-MB-231), cervical carcinoma cell line (HeLa), the liver cancer cell line (SMMC-7721) and normal hepatocyte cell line (QSG-7701) were maintained in Dulbecco Modified Eagle Medium (DMEM) containing 4.0 mM L-Glutamine and 4500 mg/L Glucose supplemented with 10% (v/v) foetal bovine serum (FBS) and 100 U/mL penicillin/streptomycin at 37 °C in humidified atmosphere of 5% CO2 and 95% air.
(§2) Exponentially growing MDA-MB-231, Hela and SMMC-7721 cell lines were seeded into 96-well plate for 100 μL and treated with different concentrations of the synthetic compounds for 72 h, and then 10 μL of MTT (10 mg/mL) was added and incubation for 3 ∼ 4 h at 37 °C. The generated purple formazan crystals from viable can be dissolved by adding 100 μL DMSO. The plates were swirled gently for 5 min and quantified by measuring the OD of the plates at the wavelength of 540 nm. Each concentration was repeated in three wells and the same experimental condition was provided for all compounds. The results were expressed as IC50 values with standard deviations, which was defined as the concentration at which 50% survival of cells was discerned. Etoposide was co-assayed as positive control.
(§3) The in vitro cytotoxic activity of derivatives 3a–d, 4a–h, 5a–h, and 6a–h were evaluated by MTT assay against human breast cancer cell line (MDA-MB-231), cervical carcinoma cell line (HeLa), hepatocarcinoma cell line (SMMC-7721) and human normal hepatocyte cell line (QSG-7701). The anticancer drug etoposide was co-assayed as the positive control. All tested compounds were dissolved in DMSO and the stock solutions were diluted by DMEM medium before treatment of the cultured cells.

MDA-MB-231 cells = experiment: MTT cytotoxic assay, MDA-MB-231; type: cell-based, human; details: Homo sapiens, MDA-MB-231, 72 h
Method: as §1, §2, §3

HeLa cells = experiment: MTT cytotoxic assay, HeLa; type: cell-based; details: Homo sapiens, 72 h
Method: as §1, §2, §3

SMMC-7721 cells = experiment: MTT cytotoxic assay, SMMC-7721; type: cell-based; details: Homo sapiens, 72 h
Method: as §1, §2, §3

| Compound | IC50 (MEK1) [µM] | IC50 (QSG-7701 cells) [µM] | Selectivity (QSG-7701 cells) | IC50 (MDA-MB-231 cells) [µM] | IC50 (HeLa cells) [µM] | IC50 (SMMC-7721 cells) [µM] |
| --- | --- | --- | --- | --- | --- | --- |
| COc1ccc2nc3c(cc2c1)CC1(C)C(CCC2(C)C1CC=C1C4C(C)C(C)CCC4(C(=O)NNC(C)=O)CCC12C)C3(C)C (centres unmarked) [Compound 4b, N-[5′-methoxy-ursa-12-en-(2,3)-quinoline-28-oyl]-acetohydrazide] | 10.9 | 45.2 ± 2.82 | 54.5 | 1.42 ± 0.14 | 0.83 ± 0.09 | 17.65 ± 0.11 |
| COc1ccc2nc3c(cc2c1)CC1(C)C(CCC2(C)C1CC=C1C4C(C)C(C)CCC4(c4nnc(C)o4)CCC12C)C3(C)C (centres unmarked) [Compound 5b, N-[5′-methoxy-ursa-12-en-(2,3)-quinoline-28-oyl]-5-methyl-1,3,4-oxadiazole] | – | > 50 | 5.6 | 12.25 ± 0.12 | 16.8 ± 0.34 | > 50 |
| CCCCc1nnc([C@]23CC[C@@H](C)[C@H](C)C2C2=CCC4[C@@]5(C)Cc6cc7ccccc7nc6C(C)(C)C5CC[C@@]4(C)[C@]2(C)CC3)o1 (some centres unmarked) [Compound 5e, N-2-[ursa-12-en-(2,3)-quinoline-28-oyl]-5-butyl-1,3,4-oxadiazole] | – | – | – | > 50 | > 50 | > 50 |
| COc1cc([C@@H]2c3cc4c(cc3[C@@H](O[C@@H]3O[C@@H]5CO[C@@H](C)O[C@H]5[C@H](O)[C@H]3O)[C@H]3COC(=O)[C@H]23)OCO4)cc(OC)c1O [Etoposide, reference compound] | – | 28.8 ± 3.28 | 9.6 | 5.26 ± 1.21 | 2.98 ± 0.42 | 3.48 ± 0.35 |
| CCCCC(=O)NNC(=O)[C@]12CC[C@@H](C)[C@H](C)C1C1=CCC3[C@@]4(C)Cc5cc6cc(Cl)ccc6nc5C(C)(C)C4CC[C@@]3(C)[C@]1(C)CC2 (some centres unmarked) [Compound 4h, N-[5′-chloro-ursa-12-en-(2,3)-quinoline-28-oyl]-pentanehydrazide] | – | – | – | > 50 | 46 ± 0.91 | > 50 |
| C[C@@H]1CC[C@]2(C(=O)O)CC[C@]3(C)C(=CCC4[C@@]5(C)Cc6cc7cc(Cl)ccc7nc6C(C)(C)C5CC[C@]43C)C2[C@H]1C (some centres unmarked) [Compound 3d] | 0.82 | > 50 | 59.5 | 1.36 ± 0.03 | 1.22 ± 0.08 | 14.62 ± 0.05 |
| Cc1nnc([C@]23CC[C@@H](C)[C@H](C)C2C2=CCC4[C@@]5(C)Cc6cc7ccccc7nc6C(C)(C)C5CC[C@@]4(C)[C@]2(C)CC3)s1 (some centres unmarked) [Compound 6a] | – | > 50 | 4.8 | 18.8 ± 1.38 | 27.3 ± 1.91 | > 50 |
| CC(=O)NNC(=O)[C@]12CC[C@@H](C)[C@H](C)C1C1=CCC3[C@@]4(C)Cc5cc6ccccc6nc5C(C)(C)C4CC[C@@]3(C)[C@]1(C)CC2 (some centres unmarked) [Compound 4a, N-[ursa-12-en-(2,3)-quinoline-28-oyl]-acetohydrazide] | 37.3 | 40.6 ± 2.89 | 34.4 | 1.84 ± 0.13 | 1.18 ± 0.03 | 17.48 ± 0.1 |
| CCCCC(=O)NNC(=O)[C@]12CC[C@@H](C)[C@H](C)C1C1=CCC3[C@@]4(C)Cc5cc6cc(OC)ccc6nc5C(C)(C)C4CC[C@@]3(C)[C@]1(C)CC2 (some centres unmarked) [Compound 4f, N-[5′-methoxy-ursa-12-en-(2,3)-quinoline-28-oyl]-pentanehydrazide] | – | – | – | > 50 | > 50 | > 50 |
| CCCCc1nnc([C@]23CC[C@@H](C)[C@H](C)C2C2=CCC4[C@@]5(C)Cc6cc7ccccc7nc6C(C)(C)C5CC[C@@]4(C)[C@]2(C)CC3)s1 (some centres unmarked) [Compound 6e, N-2-[ursa-12-en-(2,3)-quinoline-28-oyl]-5-butyl-1,3,4-thiadiazole] | – | – | – | > 50 | > 50 | > 50 |
| CCCCc1nnc([C@]23CC[C@@H](C)[C@H](C)C2C2=CCC4[C@@]5(C)Cc6cc7cc(Cl)ccc7nc6C(C)(C)C5CC[C@@]4(C)[C@]2(C)CC3)s1 (some centres unmarked) [Compound 6h, N-2-[5′-chloro-ursa-12-en-(2,3)-quinoline-28-oyl]-5-butyl-1,3,4-thiadiazole] | – | – | – | > 50 | > 50 | > 50 |
| CCCCc1nnc([C@]23CC[C@@H](C)[C@H](C)C2C2=CCC4[C@@]5(C)Cc6cc7cc(Cl)ccc7nc6C(C)(C)C5CC[C@@]4(C)[C@]2(C)CC3)o1 (some centres unmarked) [Compound 5h, N-[5′-chloro-ursa-12-en-(2,3)-quinoline-28-oyl]-5-butyl-1,3,4-oxadiazole] | – | – | – | > 50 | > 50 | > 50 |
| CCCCC(=O)NNC(=O)[C@]12CC[C@@H](C)[C@H](C)C1C1=CCC3[C@@]4(C)Cc5cc6ccccc6nc5C(C)(C)C4CC[C@@]3(C)[C@]1(C)CC2 (some centres unmarked) [Compound 4e, N-[ursa-12-en-(2,3)-quinoline-28-oyl]-pentanehydrazide] | – | – | – | > 50 | > 50 | > 50 |
| Cc1nnc([C@]23CC[C@@H](C)[C@H](C)C2C2=CCC4[C@@]5(C)Cc6cc7cc(F)ccc7nc6C(C)(C)C5CC[C@@]4(C)[C@]2(C)CC3)o1 (some centres unmarked) [Compound 5c, N-[5′-fluoro-ursa-12-en-(2,3)-quinoline-28-oyl]-5-methyl-1,3,4-oxadiazole] | – | > 50 | 3.6 | 13.2 ± 0.58 | 33.8 ± 0.95 | > 50 |
| CCCCc1nnc([C@]23CC[C@@H](C)[C@H](C)C2C2=CCC4[C@@]5(C)Cc6cc7cc(F)ccc7nc6C(C)(C)C5CC[C@@]4(C)[C@]2(C)CC3)o1 (some centres unmarked) [Compound 5g, N-[5′-fluoro-ursa-12-en-(2,3)-quinoline-28-oyl]-5-butyl-1,3,4-oxadiazole] | – | – | – | > 50 | > 50 | > 50 |
| CCCCc1nnc([C@]23CC[C@@H](C)[C@H](C)C2C2=CCC4[C@@]5(C)Cc6cc7cc(OC)ccc7nc6C(C)(C)C5CC[C@@]4(C)[C@]2(C)CC3)s1 (some centres unmarked) [Compound 6f, N-2-[5′-methoxy-ursa-12-en-(2,3)-quinoline-28-oyl]-5-butyl-1,3,4-thiadiazole] | – | – | – | > 50 | > 50 | > 50 |
| CCCCC(=O)NNC(=O)[C@]12CC[C@@H](C)[C@H](C)C1C1=CCC3[C@@]4(C)Cc5cc6cc(F)ccc6nc5C(C)(C)C4CC[C@@]3(C)[C@]1(C)CC2 (some centres unmarked) [Compound 4g, N-[5′-fluoro-ursa-12-en-(2,3)-quinoline-28-oyl]-pentanehydrazide] | – | – | – | > 50 | > 50 | > 50 |
| Cc1nnc([C@]23CC[C@@H](C)[C@H](C)C2C2=CCC4[C@@]5(C)Cc6cc7cc(Cl)ccc7nc6C(C)(C)C5CC[C@@]4(C)[C@]2(C)CC3)o1 (some centres unmarked) [Compound 5d, N-[5′-chloro-ursa-12-en-(2,3)-quinoline-28-oyl]-5-methyl-1,3,4-oxadiazole] | > 50 | > 50 | 20.1 | 11 ± 0.98 | – | > 50 |
| CCCCc1nnc([C@]23CC[C@@H](C)[C@H](C)C2C2=CCC4[C@@]5(C)Cc6cc7cc(OC)ccc7nc6C(C)(C)C5CC[C@@]4(C)[C@]2(C)CC3)o1 (some centres unmarked) [Compound 5f, N-[5′-methoxy-ursa-12-en-(2,3)-quinoline-28-oyl]-5-butyl-1,3,4-oxadiazole] | – | – | – | > 50 | 30.9 ± 1.14 | > 50 |
| Cc1nnc([C@]23CC[C@@H](C)[C@H](C)C2C2=CCC4[C@@]5(C)Cc6cc7cc(F)ccc7nc6C(C)(C)C5CC[C@@]4(C)[C@]2(C)CC3)s1 (some centres unmarked) [Compound 6c] | – | > 50 | 2.8 | 31.6 ± 2.7 | > 50 | > 50 |
| C[C@H]1[C@H](C)CC[C@]2(C(=O)O)CC[C@]3(C)C(=CC[C@@H]4[C@@]5(C)CC[C@H](O)C(C)(C)[C@@H]5CC[C@]43C)[C@H]12 [Compound 1, Ursolic acid] | – | – | – | > 50 | > 50 | > 50 |
| COc1ccc2nc3c(cc2c1)CC1(C)C(CCC2(C)C1CC=C1C4C(C)C(C)CCC4(c4nnc(C)s4)CCC12C)C3(C)C (centres unmarked) [Compound 6b] | – | > 50 | 8.5 | 15.7 ± 2.01 | 12.8 ± 1.32 | > 50 |
| C[C@@H]1CC[C@]2(C(=O)O)CC[C@]3(C)C(=CCC4[C@@]5(C)CCC(=O)C(C)(C)C5CC[C@]43C)C2[C@H]1C (some centres unmarked) [Compound 2, 3-oxo-ursolic acid] | – | – | – | > 50 | > 50 | > 50 |
